Molecules are shown by their SMILES. Where only a bound is given, the exact number is not on record here.

One experiment has as its system ERK1/ERK2. The experiment is described as follows: Measurement of Erk occupancy with biotinylated covalent probe I-299 (HT-29). It is filed as cell-based. Particulars: HT-29 cells. On the procedure: Measurement of Erk Occupancy with Biotinylated Covalent Probe
This experiment measured occupancy of the ERK1/ERK2 target by compounds according to the invention. This experiment was conducted using the Mesoscale Discovery test kit (Cat. # N45107B). One day before the assay, cells were split and added at 50,000 cells per well to a flat-bottom 96 well plate in 200 μl of growth medium. The next day, the medium was discarded, 100 μl medium containing test compound was added, and the plate was incubated at 37° C. for 120 minutes. The plate was rinsed once with PBS, and 50 μl lysis buffer with test compound was added. The plate was incubated at 4° C. for 30 min, and 30 μl of lysate was transferred to a plate to capture total and phosphor-Erk. Biotinylated probe 1-299 was diluted in lysis buffer and added to each well to a final concentration of 0.2 μM. The plate was incubated for 2 hr under constant shaking at room temperature. The plate was washed 3 times with MSD wash buffer. To detect the biotinylated probe bonding, tagged streptavidin was added (Mesoscale Discovery, Cat. # R32AD-1) at 1 μg/ml, 25 μl/well, followed by a 60 min incubation under shaking. The plate was washed 3 times, 150 μl MSD Read Buffer (Mesoscale Discovery, Cat. R61TX) was added and the plate was read in a plate reader manufactured by MSD. Percent occupancy by test compound at Erk was calculated by comparing the chemiluminescence readings from treated cells as compared to the chemiluminescence readings in untreated controls (which are defined as 100% probe bonding or 0% test compound occupancy). The amount of covalent probe signal divided by the amount of ERK signal for samples with no test compound treatment represents the maximum probe signal (MPS). In samples treated with test compound prior to covalent probe, the ratio of probe signal to ERK signal (the test probe signal, TPS) was reduced by the degree of target occupancy by the test compound which blocks covalent probe binding. The difference between the MPS and the TPS, divided by the MPS gave the target occupancy by the test compound. This ratio was then expressed as a percent occupancy. Results from this assay are provided in Table A below under the column “Occupancy EC50 (nM) HT-29.”

The subject of experiment [1] is ERK1/2 phosphorylation of p90RSK in HT29 cells. The experiment is described as follows: pRSK MSD Assay in HT29 cells. Format: cell-based. Particulars: Homo sapiens, HT-29, read-out: ERK1/ERK2 PRSK MSD HT29 EC50. A digest of the protocol: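 Serum-starved HT29 cells (0.1% FBS overnight) treated with test compound for 120 min at 37° C, then lysed with protease and phosphatase inhibitors. Phospho-p90RSK quantified by MSD sandwich immunoassay: RSK capture antibody, phospho-RSK detection antibody plus Sulfo-tagged antibody, electrochemiluminescence read.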

Experiment [2] deals with HT-29 cells (colorectal adenocarcinoma). Put plainly: Inhibition of cancer cell proliferation, HT-29 (CellTiterGlo, 72 hours). It is filed as cell-based. Particulars: Homo sapiens. A digest of the protocol:
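HT-29 cells seeded at 3000/well, then treated with 3-fold serial dilutions from a 5,000 nM two-fold solution in serum-free RPMI1640, untreated wells as control, for 72 h at 37° C. CellTiterGlo luminescence converted to cell number via a standard curve; GI50 from percent inhibition versus untreated growth.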
A general note: Cellular ATP, detected with luciferase, serves as a proxy for viable cell number.

Experiment [3] relates to HCT116 cells (colorectal carcinoma). The experiment is described as follows: Inhibition of cancer cell proliferation, HCT116 (CellTiterGlo, 72 hours). Particulars: Homo sapiens, HCT-116. Format: cell-based. On the procedure:
Measurement of Inhibition of Cancer Cell Proliferation (HCT116/Colorectal Carcinoma)
The following protocol used a HCT116 cell line, which cell line is a model for colorectal carcinoma. HCT116 cells were split and 3000 cells in 100 μl of growth medium were added per well of a flat-bottom 96-well plate. A two-fold test compound solution in serum-free RPM1640 was made, starting at 5,000 nM. Then, 3-fold serial dilutions were made across the plate from well 1 to well 11. Well 12, the last well in a row on the plate, was left as untreated control. 100 μl compound solutions were then transferred to the wells, so the total volume of media was 200 μl per well. Plates were returned to a 37° C. incubator, and the cells were cultured for 72 hours. To measure cell proliferation after 72 hours, media was discarded from the plates, 50 μl/well of fresh medium was added, and 50 μl CellTiterGlo solution was added (Promega Cat#G7573). The plate was covered with a dark lid and incubated for 10 min. A white sealing tape was applied to the bottom of the plate, and the plate was read in a luminescence plate reader. […] 50 μl CellTiterGlo was added per well, and the plate was read in a luminescence plate reader after 10 min. The reading was plotted vs. cell number to generate a standard curve and the equation of the curve fit. The compound-treated sample luminescence readings were converted to cell numbers using the curve-fit equation. The percent of inhibition, using untreated control as 100% growth, was then calculated. GI50 was then calculated by GraphPad Prism.

For experiment [4], the system named is A375 cells (malignant melanoma). The experiment is described as follows: Inhibition of cancer cell proliferation, A375 (CellTiterGlo, 72 hours). Format: cell-based. Particulars: Homo sapiens, A-375. The procedure, abridged: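 A375 melanoma cells, 3000/well, exposed 72 h at 37 °C to compound in 3-fold serial dilutions (solution added as 2× stock starting at 5,000 nM in serum-free DMEM). CellTiterGlo luminescence converted to cell number via standard curve; % inhibition vs untreated control, GI50 from curve fit.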

Experiment [5] relates to ERK1/2 phosphorylation of p90RSK in A375 cells. Put plainly: Detection of total and phosphor-RSK by MSD ELISA (A375). It is filed as cell-based. Particulars: Homo sapiens, A-375, read-out: ERK1/ERK2 PRSK A375 EC50. The procedure, abridged:
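A375 cells serum-starved overnight in DMEM/0.1% FBS, then treated 2 h at 37° C with compound (1000× DMSO dilutions into medium). Lysates captured on RSK antibody-coated MSD plates; phospho-RSK (Ser380) and total RSK detected with SulfoTag secondary antibodies by electrochemiluminescence.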
(In general: ELISA stands for enzyme-linked immunosorbent assay.)

The test system of experiment [6] is ERK1/2 phosphorylation of p90RSK (pRSK). The experiment is described as follows: Duration of action after washout: p-RSK inhibition at 6 hr. Particulars: 6 hr after washout. Format: cell-based.
Experimental: Measurement of Duration of Action of Test Compounds
One day before the assay, the cells were split and added at 50,000 cells per well in flat-bottom 96 well plate in 200 μl of growth media. The next day, the medium was discarded, 100 μl medium containing test compounds was added, and the plate was incubated at 37° C. for 120 minutes. The medium was discarded, and the cells were rinsed 3 times with PBS followed by addition of 200 μl of fresh grow medium. The plate was returned to a 37° C. incubator, and separate cell lysates were made using MSD lysis buffer after 0.25, 0.5, 1, 2, 4, 6, 8 and 18 or 24 hours. Thereafter, pRSK was measured as described above in the section entitled pRSK MSD Assay.
Another experiment concerns the target T1, Erk1 (Homo sapiens, UniProt P27361).
T1 construct: purchased Millipore 14-439
The experiment is described as follows: Protein Mass Modification Assay (intact protein MALDI, 60 min, 10-fold excess of compound). It is filed as binding. A digest of the protocol: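 Human Erk1 was incubated 60 min at room temperature with a 10-fold molar excess of compound, then analysed as intact protein by MALDI with sinapinic acid matrix. The centroid mass shift versus untreated protein was divided by compound molecular weight to give percent modified protein.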

Another experiment concerns the target T2, MEK1 activated ERK1 (Homo sapiens, UniProt P27361).
T2 construct: purchased Millipore (Billerica, Mass.) 14-439-K
Put plainly: Omnia continuous-read kinase assay for potency against MEK1 activated ERK1. Particulars: MEK1 activated ERK1, ATP at KM; read-out: ERK1 Omnia WT ATP KM IC50. It is filed as biochemical. A digest of the protocol:
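Apparent IC50 came from initial reaction slopes (RFU vs time) plotted against log inhibitor with a variable-slope fit. Reactions were started with ERK1 (4 nM final) added to 50 μM ATP, roughly at its appKM, and 10 μM Sox-conjugated ST17 peptide in 20 mM Tris pH 7.5, 5 mM MgCl2. Fluorescence was monitored every 71 seconds.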

T1 sequence (P27361 whole entry): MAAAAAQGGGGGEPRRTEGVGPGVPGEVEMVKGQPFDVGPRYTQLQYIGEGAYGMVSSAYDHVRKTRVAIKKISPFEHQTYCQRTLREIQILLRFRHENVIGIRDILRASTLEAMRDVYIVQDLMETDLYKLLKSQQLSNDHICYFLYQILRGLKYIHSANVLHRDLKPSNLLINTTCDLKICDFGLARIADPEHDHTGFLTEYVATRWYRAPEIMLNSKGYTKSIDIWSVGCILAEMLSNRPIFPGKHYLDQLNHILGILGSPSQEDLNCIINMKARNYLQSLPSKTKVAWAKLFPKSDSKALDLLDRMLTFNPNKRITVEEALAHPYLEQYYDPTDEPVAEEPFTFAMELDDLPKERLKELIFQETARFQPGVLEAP
T2 sequence (P27361 whole entry): as above

As a reminder, the GI50 is the concentration giving 50% growth inhibition. In the case of `C=CC(=O)Nc1ccccc1Nc1nc(Nc2cc(S(N)(=O)=O)ccc2C)ncc1Cl` [Compound I-205, N-(2-((5-chloro-2-((2-methyl-5-sulfamoylphenyl)amino)pyrimidin-4-yl)amino)phenyl)acrylamide], the EC50 (in the experiment on ERK1/ERK2; in experiment [1]) was less than 100 nM each time. Also, in [2], the GI50 is less than 100 nM.
For the molecule `C=CC(=O)Nc1ccccc1Nc1nc(Nc2cc(C(N)=O)c(F)cc2C)ncc1Cl` [Compound I-214, 5-((4-((2-acrylamidophenyl)amino)-5-chloropyrimidin-2-yl)amino)-2-fluoro-4-methylbenzamide], the EC50 (in the experiment on ERK1/ERK2; in experiment [1]) was less than 100 nM throughout. The same molecule had a GI50 in [2] of less than 100 nM.
With `C=CC(=O)Nc1ccccc1Nc1nc(N[C@H]2CCCN(C(=O)CO)C2)ncc1C(F)(F)F` [Compound I-15, (S)—N-(2-((2-((1-(2-hydroxyacetyl)piperidin-3-yl)amino)-5-(trifluoromethyl)pyrimidin-4-yl)amino)phenyl)acrylamide], the GI50 in experiment [3], in experiment [4] and in experiment [2] was less than 100 nM in each case. Moreover, in experiment [5], the EC50 was less than 100 nM. Besides, the “p-RSK inhibition at 6 hr (%)” value in experiment [6] was “E (a p-RSK inhibition percent of ≧70%)”.
Consider `C=CC(=O)Nc1cc(F)ccc1Nc1nc(Nc2ccc(F)cc2C)ncc1Cl` [Compound I-212, N-(2-((5-chloro-2-((4-fluoro-2-methylphenyl)amino)pyrimidin-4-yl)amino)-5-fluorophenyl)acrylamide], for which, on Erk1, the “ERK1 Mass Mod (%)” value was “F (a mass modification of 31-69%)”. For the same molecule, the EC50 (in the experiment on ERK1/ERK2; in experiment [1]) was less than 100 nM in each case. The GI50 in experiment [2] lay within 101 to 500 nM.
Regarding `C=CC(=O)Nc1ccccc1Nc1nc(Nc2cc(CO)c(F)cc2C)ncc1C(F)(F)F` [Compound I-77, N-(2-((2-((4-Fluoro-5-(hydroxymethyl)-2-methylphenyl)amino)-5-(trifluoromethyl)pyrimidin-4-yl)amino)phenyl)acrylamide], the GI50 was 101 to 500 nM in experiment [3], 101 to 500 nM in experiment [4] and less than 100 nM in experiment [2]. For the same molecule, the EC50 in the experiment on ERK1/ERK2 was less than 100 nM; in experiment [1], 101 to 500 nM.
One may read the IC50 as the concentration that gives 50% inhibition. As for `C=CC(=O)Nc1ccccc1Nc1nc(N[C@@H]2CCC[C@H](C(N)=O)C2)ncc1C(F)(F)F` (racemic) [Compound I-2, Rac-cis-3-((4-((2-acrylamidophenyl)amino)-5-(trifluoromethyl)pyrimidin-2-yl)amino)cyclohexanecarboxamide], the “ERK1 Mass Mod (%)” value at Erk1 is on record as “E (a mass modification of ≧70%)”. The EC50 (in the experiment with ERK1/ERK2; in [1]) was less than 100 nM throughout. Besides, at MEK1 activated ERK1, the IC50 was less than 100 nM. In [2], this molecule came in with a GI50 of 101 to 500 nM.
For the molecule `C=CC(=O)Nc1ccccc1Nc1nc(Nc2cc(C(N)=O)c(F)cc2C)ncc1C(F)(F)F` [Compound I-76, 5-((4-((2-Acrylamidophenyl)amino)-5-(trifluoromethyl)pyrimidin-2-yl)amino)-2-fluoro-4-methylbenzamide], the EC50 with ERK1/ERK2 was less than 100 nM; in [1], 501 to 999 nM. Also, the GI50 was 101 to 500 nM in experiment [4] and less than 100 nM in experiment [2].
For `C=CC(=O)Nc1cc(F)ccc1Nc1nc(Nc2cc(C(N)=O)ccc2C)ncc1Cl` [Compound I-206, 3-((4-((2-acrylamido-4-fluorophenyl)amino)-5-chloropyrimidin-2-yl)amino)-4-methylbenzamide], the EC50 with ERK1/ERK2 is less than 100 nM; in experiment [1] it was 101 to 500 nM. Besides, the GI50 in [2] was less than 100 nM.
Regarding `C=CC(=O)Nc1ccccc1Nc1nc(NC2CCCC(C(N)=O)C2)ncc1Cl` (racemic) [Compound I-102], the “ERK1 Mass Mod (%)” value on Erk1 is “E (a mass modification of ≧70%)”. In addition, the EC50 (with ERK1/ERK2; in experiment [1]) was less than 100 nM in each case. For the same molecule, the GI50 in experiment [2] lay in the range of 101 to 500 nM.
For `C=CC(=O)Nc1cc(C)ccc1Nc1nc(Nc2cc(C(C)=O)ccc2C)ncc1Cl` [Compound I-239, N-(2-((2-((5-acetyl-2-methylphenyl)amino)-5-chloropyrimidin-4-yl)amino)-5-methylphenyl)acrylamide], on Erk1, the “ERK1 Mass Mod (%)” value is on record as “E (key: E: a mass modification of ≧70%; F: a mass modification of 31-69%; G: a mass modification ≦30%)”. In addition, the GI50 in experiment [3] is 501 to 999 nM; in experiment [4], 101 to 500 nM; in experiment [2], 101 to 500 nM. The IC50 at MEK1 activated ERK1 was 101 to 500 nM.
Turning to `C=CC(=O)Nc1ccccc1Nc1nc(Nc2ccc(F)cc2C#N)ncc1Cl` [Compound I-211, N-(2-((5-chloro-2-((2-cyano-4-fluorophenyl)amino)pyrimidin-4-yl)amino)phenyl)acrylamide], the EC50 (in the experiment with ERK1/ERK2; in experiment [1]) was less than 100 nM throughout. The molecule further showed a 50% growth inhibitory concentration (GI50) in experiment [2] of 101 to 500 nM.
Take `C=CC(=O)Nc1ccccc1Nc1nc(Nc2cc(C(N)=O)ccc2C)ncc1Cl` [Compound I-319, 3-(4-(2-acrylamidophenylamino)-5-chloropyrimidin-2-ylamino)-4-methylbenzamide]: the EC50 (in the experiment on ERK1/ERK2; in experiment [1]) was less than 100 nM throughout. The molecule also gave a GI50 in experiment [2] of 101 to 500 nM.

Source of the values: patent US9561228B2 (Celgene Avilomics Research, Inc., priority 2013, dated 2017).
